{
  "source": "patent US20220362177A1",
  "about": "“CERAMIDE RATIOS AS PREDICTIVE AND THERAPEUTIC BIOMARKERS FOR LEUKEMIAS” (University of Virginia Patent Foundation, priority 2019, published 2022)",
  "key": {"MOLM-14": {"tested_on": "MOLM-14", "assay": "MTS cell viability assay", "type": "cell-based", "conditions": "MOLM-14, ceramides for 24 hours, with CNL", "description": "FIG. 4. Ceramide chain length altered biological and biophysical responses. MOLM-14 cells were treated with the indicated ceramides for 24 hours and viability was assessed by MTS.\nMTS Cell Viability Assay: Cytotoxicity of nanoliposomal ceramide in AML cells was measured by plating 15,000 cells/well into 96-well plates followed by growth for 24 hours in a humidified 37° C. cell culture incubator in the presence of ghost liposomes, CNL or other drugs for 24 hours in 10% serum medium. After 24 h, MTS/PMS mixture was added and adsorption was read at 560 nm using Bio-Tek plate reader.\nCell viability MTS assays were performed in three AML cells lines: OCI-AML2, KG-1, AND MOLM-14 to determine their sensitivities to co-treatment with CNL, Ara-C, and Venetoclax. Table 1 summarized these cell lines, their sources, and the known driver mutations that are present in the cell lines. The cells lines were treated with concentrations that had been determined to be less than the EC50 so any synergistic or additive effects could be observed."}, "AML cells": {"tested_on": "AML cells", "conditions": "recent studies by others; cited from earlier work"}, "ceramide levels": {"tested_on": "ceramide levels", "assay": "Lipidomics (LC/MS) of ceramide levels in treated cells", "type": "cell-based", "conditions": "24 hrs", "description": "Lipidomics: Lipids were extracted from cell lysates and analyzed on an Acquity I-Class/Xevo TQ-S Micro IVD System (Waters Corporation, Milford, Mass., United States of America) as described previously (Pearson et al. (2020) Ceramide Analogue SACLAC Modulates Sphingolipid Levels and MCL-1 Splicing to Induce Apoptosis in Acute Myeloid Leukemia. Mol Cancer Res 18(3):352-363). Mass spectrometry peaks were compared to internal standards, and all data are represented as picomoles of lipid per milligram of protein.\nTo determine potential metabolic mechanism underlying the efficacy of combinatorial CNL/AraC/Venetoclax (CAV) treatment, lipids were harvested to measure the effect of Venetoclax and AraC upon CNL metabolism by LC/MS. Cells were treated individually or in combination with CNL, Ara-C, and/or Venetoclax for 24 hrs. […] This lead to an increase in the C16/C24 ratio, which might support a pro-mitogenic response (FIG. 6H)."}, "Mcl-1": {"tested_on": "Mcl-1", "assay": "Western blot of treated MOLM-14 cells", "type": "cell-based", "conditions": "MOLM-14, 24 hours", "method": "After centrifugation for 15 minutes at 13-14000×g at 10° C. supernatants were mixed with one-third of a volume of NUPAGE™ LDS 4× Sample Buffer (Thermo Fisher Scientific) containing 5% 2-mercaptoethanol. Protein samples were prepared by heating at 37° C. for 10 min after the addition of denaturing sample buffer. […] Primary and secondary antibodies were to diluted in 0.05% TBS/Tween-20 containing 0.05% Casein Blocker. Protein bands were visualized using a commercially available chemiluminescence kit (Thermo Fisher Scientific) or by infrared laser scanner using ChemiXX6 G:box imager (Syngene, Frederick, Md., United States of America)."}, "Survivin": {"tested_on": "Survivin", "assay": "Western blot of treated MOLM-14 cells", "type": "cell-based", "conditions": "MOLM-14, 24 hours, independently", "description": "(§1) FIGS. 7A-7I. CAV treatment alters expression of genes involved in cell survival relevant to AraC and Venetoclax resistance mechanism. MOLM-14 cells were treated with the listed conditions for 24 hours and protein harvested. Western blots were performed and quantitated via densitometry. Representative blots are shown in FIG. 7A and quantification in FIGS. 7B-7I. *: significant to Vehicle.\n(§2) Western blotting: Whole cell lysates were prepared by dissolving cells in FOCUS™ Extraction Buffer III (G-Biosciences, St. Louis, Mo., United States of America; Catalog No. 786-222) containing protease inhibitors (Thermo Fisher Scientific Catalog No. A32955) for 10-15 minutes on ice with occasional shaking. After centrifugation for 15 minutes at 13-14000×g at 10° C. supernatants were mixed with one-third of a volume of NUPAGE™ LDS 4× Sample Buffer (Thermo Fisher Scientific) containing 5% 2-mercaptoethanol. Protein samples were prepared by heating at 37° C. for 10 min after the addition of denaturing sample buffer. Proteins were separated using SDS-PAGE on a 4-12% gel (Thermo Fisher Scientific) and transferred to Immobilon membrane (Bio-Rad). […]"}, "XIAP": {"tested_on": "XIAP", "assay": "Western blot of treated MOLM-14 cells", "type": "cell-based", "conditions": "MOLM-14, 24 hours", "description": "as §1, §2"}, "C1498 AML cells": {"tested_on": "C1498 AML cells", "assay": "Syngeneic C1498-luc AML model in C57BL/6J mice", "type": "in vivo, mouse", "description": "FIG. 8C: Survival of C1498-bearing C57BL/6J mice were treated with either Control (Lip-Ghost), CNL (31.2 mg/kg), Cytarabine (75 mg/kg) or CNL+Cytarabine.\nWe initially utilized the immune-compromised NRG mice engrafted with MOLM-13 cells expressing luciferase. Mice were engrafted, treated with the various drug combinations, and disease burden measured by live animal luminescence and Kaplan-Meier curve. […] C1498 cells are a de novo AML cell line from a C57-blkJ mouse. […] Given this, no Venetoclax groups were included. C57-blkJ mice were injected with C1498 AML cells transduced to express luciferase."}},
  "data": [
    {"smiles": "CCCCCCCCCCCCC/C=C/[C@@H](O)[C@H](CO)NC(=O)CCCCCCCCCCCCCCCCCCCCCCC", "note": "[C24 ceramide]", "values": [
      {"measurement": "potentiation of CNL-induced cell death", "setting": "MOLM-14", "value": "not"}
    ]},
    {"smiles": "CCCCCCCCCCCCC/C=C/[C@@H](O)[C@H](CO)NC(=O)CCCCCCCCCCCCCCC", "note": "[C16 ceramide]", "values": [
      {"measurement": "potentiation of CNL-induced cell death", "setting": "MOLM-14", "value": "potentiated"}
    ]},
    {"smiles": "CCCCCCCCc1ccc(CCC(N)(CO)CO)cc1", "note": "[FTY720]", "values": [
      {"measurement": "apoptosis / death of AML cells", "setting": "AML cells", "value": "rapidly induced ceramide-mediated apoptosis"}
    ]},
    {"smiles": "Nc1ccn([C@@H]2O[C@H](CO)[C@@H](O)[C@@H]2O)c(=O)n1", "note": "[AraC, cytarabine]", "values": [
      {"measurement": "ceramide levels", "setting": "ceramide levels; single agent", "value": "significantly elevated"},
      {"measurement": "ceramide levels", "setting": "ceramide levels; with co-treatment of CNL", "value": "raise ceramide levels"},
      {"measurement": "Mcl-1 expression", "setting": "Mcl-1", "value": "not"},
      {"measurement": "Survivin expression levels", "setting": "Survivin", "value": "increased expression levels"},
      {"measurement": "XIAP expression", "setting": "XIAP", "value": "not"},
      {"measurement": "median survival time", "setting": "C1498 AML cells; C1498-bearing C57BL/6J mice, CNL 31.2 mg/kg, Cytarabine 75 mg/kg, treated 7 days", "value": 41, "unit": "days"},
      {"measurement": "survival", "setting": "C1498 AML cells; C1498 model, single agent", "value": "moderate increase in survival"}
    ]}
  ]
}
